Laboratory results reported in ChEMBL document CHEMBL5113542, “Highly Potent and Oral Macrocyclic Peptides as a HIV-1 Protease Inhibitor: mRNA Display-Derived Hit-to-Lead Optimization” (ACS Med Chem Lett, 2022).
Starred links: 1 amine or outer side, 2 acyl side, 3 side chain; linkers in the order of their positions; H or OH if unused. Positions of bridges follow the written chain, without caps; N, C: chain ends. Non-standard residues stand in square brackets, D forms with d. Residues, ends and D or L forms follow the SMILES beside them. X3 = O=C([C@H](CCC1=CCC(F)(F)CC1)N[*:1])[*:2]; Trp(1-Me) = Cn1cc(C[C@H](N)C(=O)O)c2ccccc21; 1Nal = N[C@@H](Cc1cccc2ccccc12)C(=O)O; NHCH2CH2SCH2CO = O=C(CSCCN[*:1])[*:2]; NMeF = CN[C@@H](Cc1ccccc1)C(=O)O; hCha = N[C@@H](CCC1CCCCC1)C(=O)O; hPhe = N[C@@H](CCc1ccccc1)C(=O)O; X1 = CC(C)(CN[*:1])SCC(=O)[*:2]; X2 = CC(C)(SCCN[*:1])C(=O)[*:2]; Pen = CC(C)(S)[C@H](N)C(=O)O; αMeV = CC(C)[C@](C)(N)C(=O)O; αMeP = C[C@@]1(C(=O)O)CCCN1

Columns and labels:
[1] = target: Human immunodeficiency virus type 1 protease (Human immunodeficiency virus 1, UniProt Q72874); test: Inhibition of HIV-1 protease using EDANS-RESGIFLETSKR-DABCYL as substrate preincubated for 15 mins followed by substrate addition and measured after 60 mins by fluorescence based assay
[2] = Metabolic stability in human liver S9 fraction incubated for 60 mins by LC-MS/MS analysis; assay type: ADME, subcellular; conditions: read-out: Stability
[3] = tested on: Human immunodeficiency virus 1; test: Anti-HIV activity against HIV-1 3B strain infected in human MT4 cells assessed as inhibition of virus-induced cell death preincubated with compound for 1 hrs followed by viral infection and measured after 4 days by MTT assay; assay type: functional, organism-based; conditions: Human immunodeficiency virus 1, 3B
[4] = Unbound fraction in rat serum measured after 24 hrs by equilibrium dialysis based LC-MS/MS analysis; assay type: ADME, cell-free
[5] = Solubility of the compound at pH 6.8 incubated for 1 hrs in the presence of taurocholic acid by UHPLC/MS analysis; assay type: physicochemical; conditions: medium containing taurocholic acid
[6] = Metabolic stability in rat liver microsomes incubated for 30 mins in the presence of NADPH by LC-MS/MS analysis; assay type: ADME, Microsome; conditions: read-out: Stability
[7] = Metabolic stability in human liver microsomes incubated for 30 mins in the presence of NADPH by LC-MS/MS analysis; assay type: ADME, Microsome; conditions: read-out: Stability
[8] = Half-life in Sprague-Dawley rat at 2 umol/kg, po or 1 umol/kg, iv administered as single dose by LC-MS/MS analysis; assay type: ADME, organism-based; conditions: in vivo, dose 2 µmol/kg
[9] = Volume of distribution at steady state in Sprague-Dawley rat at 2 umol/kg, po or 1 umol/kg, iv administered as single dose by LC-MS/MS analysis; assay type: ADME, organism-based; conditions: in vivo, dose 1 µmol/kg
[10] = Oral bioavailability in Sprague-Dawley rat at 2 umol/kg administered as single dose by LC-MS/MS analysis; assay type: ADME, organism-based; conditions: in vivo, at 2 µmol/kg

For `CC(C)C[C@@H]1NC(=O)[C@](C)(C(C)C)NC(=O)[C@@H]2CCCN2C(=O)[C@H](C(C)C)NC(=O)[C@H](Cc2ccccc2)NC(=O)CSCCNC(=O)[C@H](Cc2ccccc2)N(C)C(=O)[C@H](CC(C)C)NC(=O)[C@H](Cc2cccc3ccccc23)NC1=O` (cyclo([1Nal]L[NMeF][NHCH2CH2SCH2CO]FVP[αMeV]L)), which IC50 [1] is on record?
The IC50 was 0.44 nM.

And the remaining at 1 h [2]?
The remaining at 1 h was 69%.

And the EC50 [3]?
The EC50 was 120 nM.

For `CC(C)C[C@@H]1NC(=O)[C@H](C(C)C)NC(=O)[C@@H]2CCCN2C(=O)[C@H](C(C)C)NC(=O)[C@H](Cc2ccccc2)NC(=O)CSCCNC(=O)CNC(=O)[C@H](Cc2ccccc2)N(C)C(=O)[C@H](CC(C)C)NC(=O)[C@H](Cc2c[nH]c3ccccc23)NC1=O` (cyclo(FVPVLWL[NMeF]G[NHCH2CH2SCH2CO])), which fraction unbound at 24 h [4] is on record?
Its fraction unbound at 24 h is 0.011.

And the IC50 [1]?
Its IC50 is 0.99 nM.

And the solubility at 1 h [5]?
Its solubility at 1 h is 26 µM.

What about the remaining at 1 h [2] of the same compound?
Its remaining at 1 h is 23%.

And the remaining at 0.5 h [6]?
Its remaining at 0.5 h is 29%.

And the remaining at 0.5 h [7]?
The remaining at 0.5 h was 3%.

And the half-life [8]?
The half-life was 42 min.

What about the Vdss [9] of the same compound?
Its Vdss is 0.1 L/kg.

What about the EC50 [3] of the same compound?
Its EC50 is 960 nM.

Which IC50 [1] does the source give for `CC(C)C[C@@H]1NC(=O)[C@H](C(C)C)NC(=O)[C@]2(C)CCCN2C(=O)[C@H](C(C)C)NC(=O)[C@H](Cc2ccccc2)NC(=O)CSCCNC(=O)[C@H](Cc2ccccc2)N(C)C(=O)[C@H](CC(C)C)NC(=O)[C@H](CCC2CCCCC2)NC1=O` (cyclo(FV[αMeP]VL[hCha]L[NMeF][NHCH2CH2SCH2CO])) here?
The IC50 was 0.29 nM.

And the EC50 [3]?
The EC50 was 12 nM.

With `CC(C)C[C@@H]1NC(=O)[C@H](C(C)C)NC(=O)[C@@H]2CCCN2C(=O)[C@H](C(C)C)NC(=O)[C@H](Cc2ccccc2)NC(=O)CSCCNC(=O)[C@H](Cc2ccccc2)N(C)C(=O)[C@H](CC(C)C)NC(=O)[C@H](Cc2c[nH]c3ccccc23)NC1=O` (cyclo(FVPVLWL[NMeF][NHCH2CH2SCH2CO])) as the compound, how does the IC50 [1] read?
The IC50 was 8.05 nM.

And the EC50 [3]?
Its EC50 is 610 nM.

Which results are given for `CC(C)C[C@@H]1NC(=O)[C@H](C(C)C)NC(=O)[C@]2(C)CCCN2C(=O)[C@H](C(C)C)NC(=O)[C@H](Cc2ccccc2)NC(=O)CSCCNC(=O)[C@H](CC(C)C)NC(=O)[C@H](Cc2ccccc2)N(C)C(=O)[C@H](CC(C)C)NC(=O)[C@H](CCC2CCCCC2)NC1=O` (cyclo(FV[αMeP]VL[hCha]L[NMeF]L[NHCH2CH2SCH2CO]))?
IC50 [1]: 2.3 nM; EC50 [3]: 62 nM

Which results are given for `CC(C)C[C@@H]1NC(=O)[C@H](C(C)C)NC(=O)[C@@H]2CCCN2C(=O)[C@H](C(C)C)NC(=O)[C@H](Cc2ccccc2)NC(=O)CSCCNC(=O)[C@H](Cc2ccccc2)N(C)C(=O)[C@H](CC(C)C)NC(=O)[C@H](Cc2cn(C)c3ccccc23)NC1=O` (cyclo(FVPVL[Trp(1-Me)]L[NMeF][NHCH2CH2SCH2CO]))?
IC50 [1]: 7.86 nM; EC50 [3]: 1500 nM

With `CC(C)C[C@@H]1NC(=O)[C@H](C(C)C)NC(=O)[C@]2(C)CCCN2C(=O)[C@H](C(C)C)NC(=O)[C@H](Cc2ccccc2)NC(=O)CSCCNC(=O)[C@H](Cc2ccccc2)NC(=O)[C@H](Cc2ccccc2)N(C)C(=O)[C@H](CC(C)C)NC(=O)[C@H](CCC2CCCCC2)NC1=O` (cyclo(FV[αMeP]VL[hCha]L[NMeF]F[NHCH2CH2SCH2CO])) as the compound, how does the IC50 [1] read?
The IC50 was 2.32 nM.

And the EC50 [3]?
Its EC50 is 56 nM.

Which IC50 [1] does the source give for `CC(C)C[C@@H]1NC(=O)[C@H](C(C)C)NC(=O)[C@]2(C)CCCN2C(=O)[C@H](C(C)C)NC(=O)[C@H](Cc2ccccc2)NC(=O)CSCCNC(=O)CNC(=O)[C@H](Cc2ccccc2)N(C)C(=O)[C@H](CC(C)C)NC(=O)[C@H](CCC2CCCCC2)NC1=O` (cyclo(FV[αMeP]VL[hCha]L[NMeF]G[NHCH2CH2SCH2CO])) here?
The IC50 was 0.37 nM.

What about the remaining at 1 h [2] of the same compound?
The remaining at 1 h was 85%.

What about the EC50 [3] of the same compound?
The EC50 was 29 nM.

Which IC50 [1] does the source give for `CC(C)C[C@@H]1NC(=O)[C@H](C(C)C)NC(=O)[C@@H]2CCCN2C(=O)[C@H](C(C)C)NC(=O)[C@H](Cc2ccccc2)NC(=O)CSCCNC(=O)[C@H](Cc2ccccc2)N(C)C(=O)[C@H](CC(C)C)NC(=O)[C@H](Cc2cccc3ccccc23)NC1=O` (cyclo([1Nal]L[NMeF][NHCH2CH2SCH2CO]FVPVL)) here?
The IC50 was 0.68 nM.

And the remaining at 1 h [2]?
Its remaining at 1 h is 46%.

And the EC50 [3]?
The EC50 was 320 nM.

Which results are given for `COC(=O)[C@H]1NC(=O)[C@H](C)NC(=O)[C@H](Cc2ccccc2)N(C)C(=O)[C@H](CC(C)C)NC(=O)[C@H](CCC2CCCCC2)NC(=O)[C@H](CC(C)C)NC(=O)[C@H](C(C)C)NC(=O)[C@]2(C)CCCN2C(=O)[C@H](C(C)C)NC(=O)[C@H](Cc2ccccc2)NC(=O)CSC1(C)C` ({CH2CO}-FV[αMeP]VL[hCha]L[NMeF]A[Pen]-OMe; thioether N-10)?
fraction unbound at 24 h [4]: 0.001; bioavailability [10]: 3.3%; IC50 [1]: 3.52 nM; solubility at 1 h [5]: 10 µM; remaining at 0.5 h [6]: 63%; remaining at 0.5 h [7]: 23%; half-life [8]: 234 min; Vdss [9]: 1.9 L/kg; EC50 [3]: 37 nM

Which IC50 [1] does the source give for `CC(C)C[C@@H]1NC(=O)[C@H](C(C)C)NC(=O)[C@]2(C)CCCN2C(=O)[C@H](C(C)C)NC(=O)[C@H](Cc2ccccc2)NC(=O)CSCCNC(=O)[C@H](Cc2ccccc2)N(C)C(=O)[C@H](CC(C)C)NC(=O)[C@H](CCc2ccccc2)NC1=O` (cyclo(FV[αMeP]VL[hPhe]L[NMeF][NHCH2CH2SCH2CO])) here?
The IC50 was 0.45 nM.

And the EC50 [3]?
The EC50 was 28 nM.

Which results are given for `CC(C)C[C@@H]1NC(=O)[C@H](C(C)C)NC(=O)[C@]2(C)CCCN2C(=O)[C@H](C(C)C)NC(=O)[C@H](Cc2ccccc2)NC(=O)C(C)(C)SCCNC(=O)[C@H](C)NC(=O)[C@H](Cc2ccccc2)N(C)C(=O)[C@H](CC(C)C)NC(=O)[C@H](CCC2CCCCC2)NC1=O` (cyclo(A[X2]FV[αMeP]VL[hCha]L[NMeF]))?
IC50 [1]: 15.3 nM; remaining at 0.5 h [6]: 46%; remaining at 0.5 h [7]: 28%; EC50 [3]: 150 nM

Which results are given for `CC(C)C[C@@H]1NC(=O)[C@H](C(C)C)NC(=O)[C@]2(C)CCCN2C(=O)[C@H](C(C)C)NC(=O)[C@H](Cc2ccccc2)NC(=O)CSCCNC(=O)[C@H](C)NC(=O)[C@H](Cc2ccccc2)N(C)C(=O)[C@H](CC(C)C)NC(=O)[C@H](CCC2CCCCC2)NC1=O` (cyclo(A[NHCH2CH2SCH2CO]FV[αMeP]VL[hCha]L[NMeF]))?
fraction unbound at 24 h [4]: 0.001; IC50 [1]: 0.28 nM; remaining at 0.5 h [6]: 53%; remaining at 0.5 h [7]: 8%; half-life [8]: 96 min; Vdss [9]: 0.8 L/kg; EC50 [3]: 24 nM

Which IC50 [1] does the source give for `CC(C)C[C@@H]1NC(=O)[C@H](C(C)C)NC(=O)[C@]2(C)CCCN2C(=O)[C@H](C(C)C)NC(=O)[C@H](Cc2ccccc2)NC(=O)CSCCNC(=O)[C@H](Cc2ccccc2)N(C)C(=O)[C@H](CC(C)C)NC(=O)[C@H](CCC2=CCC(F)(F)CC2)NC1=O` (cyclo(FV[αMeP]VL[X3]L[NMeF][NHCH2CH2SCH2CO])) here?
Its IC50 is 0.21 nM.

What about the EC50 [3] of the same compound?
The EC50 was 10 nM.

With `CC(C)C[C@@H]1NC(=O)[C@H](C(C)C)NC(=O)[C@]2(C)CCCN2C(=O)[C@H](C(C)C)NC(=O)[C@H](Cc2ccccc2)NC(=O)CSCCNC(=O)[C@H](Cc2ccccc2)N(C)C(=O)[C@H](CC(C)C)NC(=O)[C@H](Cc2cccc3ccccc23)NC1=O` (cyclo([1Nal]L[NMeF][NHCH2CH2SCH2CO]FV[αMeP]VL)) as the compound, how does the IC50 [1] read?
The IC50 was 0.78 nM.

What about the remaining at 1 h [2] of the same compound?
The remaining at 1 h was 86%.

And the EC50 [3]?
Its EC50 is 30 nM.

Which fraction unbound at 24 h [4] does the source give for `CC(C)C[C@@H]1NC(=O)[C@H](C(C)C)NC(=O)[C@]2(C)CCCN2C(=O)[C@H](C(C)C)NC(=O)[C@H](Cc2ccccc2)NC(=O)CSC(C)(C)CNC(=O)[C@H](C)NC(=O)[C@H](Cc2ccccc2)N(C)C(=O)[C@H](CC(C)C)NC(=O)[C@H](CCC2CCCCC2)NC1=O` (cyclo(A[X1]FV[αMeP]VL[hCha]L[NMeF])) here?
Its fraction unbound at 24 h is 0.001.

And the bioavailability [10]?
The bioavailability was 0.2%.

What about the IC50 [1] of the same compound?
Its IC50 is 0.62 nM.

What about the remaining at 0.5 h [6] of the same compound?
Its remaining at 0.5 h is 60%.

What about the remaining at 0.5 h [7] of the same compound?
Its remaining at 0.5 h is 20%.

And the half-life [8]?
The half-life was 120 min.

What about the Vdss [9] of the same compound?
Its Vdss is 0.7 L/kg.

And the EC50 [3]?
Its EC50 is 11 nM.
